Here are results for 13 molecules from US9340577B2, “HLA binding motifs and peptides and their uses” (priority 1992, dated 2016).

No end group written: not given here.

Holding throughout (test): biochemical
The target in one assay is DRB1*0405 (Homo sapiens, UniProt P01903+P01911, A100R/A169T/D86S/F76Y/I96L/K127E/L162R/M171V/N62H/P40V/Q125Y/R42H/S133A/S149N/S66Y/V115G/V209L/W38E). Format: binding.
The next assay has as its target DRB1*0802 (Homo sapiens, UniProt P01903+P01911, A100R/A103L/A169T/F76Y/H45Y/I96F/K41T/L162R/M171V/P40S/Q125H/Q178H/Q39Y/Q99D/R218S/R42G/S66Y/V115G/W38E). Format: binding.
The target of another assay is DRB4*0101 (Homo sapiens, UniProt P01903+P13762, G164S). Format: binding.
Another assay concerns the target DRB1*1201 (Homo sapiens, UniProt P01903+P01911, A100R/A169T/D57E/D86V/F55L/H45Y/K41T/L162R/M171V/P40S/Q125H/Q178H/Q39Y/Q99D/R42G/S66L/T262R/V114A/V67L/W38E/Y59H/Y61H/Y89S). Format: binding.
Another assay addresses DRB1*1101 (Homo sapiens, UniProt P01903+P01911, A100R/A169T/A87E/I96F/K41T/L162R/M171V/P40S/Q125H/Q178H/Q39Y/Q99D/R42S/S66Y/T262R/V115G/W38E). The conditions noted are these: Binding affinity DRB1 *1101.
The target in a further assay is DRB1*0301 (Homo sapiens, UniProt P01903+P01911, A100K/A102G/A103R/A169T/F55Y/I96L/K41T/L162R/M171V/P40S/Q125H/Q178H/Q39Y/R42S/S66N/T106N/T262R/W38E/Y61H). Format: binding.
Sequence of DRB1*0301 (P01903 26-254 limits assumed, other chains not shown): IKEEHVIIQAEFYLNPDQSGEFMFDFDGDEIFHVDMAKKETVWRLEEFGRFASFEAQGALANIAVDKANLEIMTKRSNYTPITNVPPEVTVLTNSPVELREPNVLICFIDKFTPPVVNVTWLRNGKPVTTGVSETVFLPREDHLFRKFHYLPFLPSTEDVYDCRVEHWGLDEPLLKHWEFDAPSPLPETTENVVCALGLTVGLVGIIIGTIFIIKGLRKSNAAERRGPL
A further assay deals with DRB1*0901 (Homo sapiens, UniProt P01903+P01911, A100R/A103E/D57H/D86V/F55Y/F60I/F76Y/I96F/K127E/L162R/M171V/P40D/Q125H/Q99R/R33Q/R42F/S133A/S66N/T210M/V115G/W38K/Y107V/Y59G/Y89S). Format: binding.
For another assay, the target named is DR7 (DRB1*0701) (Homo sapiens, UniProt P01903+P01911, A100R/A102G/A103Q/D57E/D86V/E43K/F76Y/K127E/L162R/M171V/P40G/Q125H/Q99D/R33Q/R42Y/R54Q/S133A/S66F/T210M/V115G/Y107V/Y59L/Y89S). Format: binding.
The target of another assay is DRB5*0101 (Homo sapiens, UniProt P01903+Q30154). The conditions noted are these: Binding affinity DRB5 *0101.
The target of another assay is DR1 (DRB1*0101) (Homo sapiens, UniProt P01903+P01911, A100R/D57E/F55L/F60I/F76Y/I96L/L162R/M171V/P40L/Q125E/R42F/V115G/Y59C). Format: binding.
Another assay addresses DRB1*1302 (Homo sapiens, UniProt P01903+P01911, A100E/A169T/K41T/L162R/M171V/P40S/Q125H/Q178H/Q39Y/Q99D/R42S/S66N/T262R/V115G/W38E/Y61H). Format: binding.
Another assay addresses DR4w4 (DRB1*0401) (Homo sapiens, UniProt P01903+P01911, A100K/A169T/F76Y/I96L/K127E/L162R/M171V/N62H/P40V/Q125Y/R42H/S133A/S149N/S66Y/V115G/V209L/W38E). Format: binding.
The target in another assay is DRB1*1501 (Homo sapiens, UniProt P01903+P01911). Format: binding.

Sequence of DRB1*1101 (P01903 26-254 limits assumed, other chains not shown): as above
Sequence of DRB1*1302 (P01903 26-254 limits assumed, other chains not shown): as above

DNDIVDDSEIAYKYA [Peptide 90.0037]: the IC50 is > 20000 nM against DRB1*0405; > 20000 nM at DRB1*0802; > 20000 nM at DRB4*0101; 5300 nM at DRB1*1201; > 20000 nM on DRB1*1101; 28 nM on DRB1*0301. Further, the IC50 on DRB1*0901 was > 20000 nM; at DR7 (DRB1*0701), > 20000 nM; at DRB5*0101 it was > 20000 nM; against DR1 (DRB1*0101), > 20000 nM; against DRB1*1302 it was > 20000 nM; at DR4w4 (DRB1*0401), 4620 nM.

In the case of EIYIIEEDTCTMVTG [Peptide 90.0203], the IC50 at DRB1*0405 was 3090 nM; against DRB1*1501, 6500 nM; at DRB1*0802, > 20000 nM; against DRB4*0101, 1740 nM; against DRB1*1201 it was > 20000 nM; at DRB1*0301, 273 nM. For the same molecule, the IC50 against DRB1*0901 was > 20000 nM; on DRB5*0101 it was > 20000 nM; at DR1 (DRB1*0101), 1360 nM; on DRB1*1302, 577 nM; against DR4w4 (DRB1*0401), 258 nM.

On to FKYFKEDAAKYSKTQ [Peptide 90.0206], for which the IC50 at DRB1*0405 was 6860 nM; against DRB1*1501, 865 nM; against DRB1*0802, 835 nM; on DRB4*0101 it was > 20000 nM; on DRB1*1201, 399 nM; at DRB1*1101, 303 nM. Further, the IC50 against DRB1*0301 was determined as 451 nM; against DRB1*0901, 1700 nM; against DR1 (DRB1*0101) it was 63 nM; on DRB1*1302, 1700 nM; against DR4w4 (DRB1*0401), 19 nM.

As for DNDVMDDSEIAYKYA [Peptide 90.0069], the IC50 against DRB1*0405 is 10100 nM; on DRB1*1501 it was 8220 nM; against DRB1*0802 it was > 20000 nM; on DRB4*0101 it was > 20000 nM; against DRB1*1201, 12700 nM; on DRB1*1101, > 20000 nM. Further, the IC50 against DRB1*0301 is 53 nM; on DRB1*0901, > 20000 nM; at DRB5*0101, > 20000 nM; against DR1 (DRB1*0101), > 20000 nM; against DRB1*1302 it was > 20000 nM; against DR4w4 (DRB1*0401), 3680 nM.

YKTLFVDVTSTYHWT [Peptide 90.0241]: the IC50 was 549 nM at DRB1*0405; 14100 nM on DRB1*0802; > 20000 nM against DRB4*0101; 3900 nM at DRB1*1201; 4200 nM on DRB1*1101; 56 nM on DRB1*0301. For the same molecule, the IC50 on DRB1*0901 was determined as 2230 nM; against DR7 (DRB1*0701), 647 nM; on DRB5*0101, 5500 nM; against DR1 (DRB1*0101), 4030 nM; against DRB1*1302, 71 nM; against DR4w4 (DRB1*0401) it was 75 nM.

With VTAIFGVNPTIAEGF [Peptide 89.0023], the IC50 at DRB1*0405 is 100 nM; against DRB1*1501, 5700 nM; against DRB1*0802, > 20000 nM; at DRB4*0101, 544 nM; at DRB1*1201, 6580 nM; on DRB1*1101 it was > 20000 nM. In addition, the IC50 against DRB1*0301 was 3420 nM; on DRB1*0901, 2910 nM; on DRB5*0101, > 20000 nM; against DR1 (DRB1*0101) it was 1140 nM; at DRB1*1302 it was 193 nM; against DR4w4 (DRB1*0401) it was 836 nM.

As to EDEIDTDLDGFIDDS [Peptide 90.0126], the IC50 at DRB1*0405 is 1020 nM; against DRB1*1501 it was 270 nM; against DRB4*0101, 823 nM; against DRB1*1201, 138 nM; at DRB1*1101, > 20000 nM; against DRB1*0301, 128 nM. The results for the IC50 at DR1 (DRB1*0101), at DRB1*1302 and at DR4w4 (DRB1*0401) were 320 nM, 67 nM and > 20000 nM, respectively.

On to ENSIQADTEAARALF [Peptide 90.0078], for which the IC50 against DRB1*0405 was > 20000 nM; against DRB1*1501, > 20000 nM; on DRB1*0802 it was > 20000 nM; against DRB4*0101, > 20000 nM; against DRB1*1201 it was 7440 nM; at DRB1*1101, > 20000 nM. Also, the IC50 against DRB1*0301 was 620 nM; on DRB1*0901, > 20000 nM; on DRB5*0101 it was > 20000 nM; at DR1 (DRB1*0101), 3900 nM; against DRB1*1302, > 20000 nM; against DR4w4 (DRB1*0401), > 20000 nM.

Consider KVAMLDDATHTCWTY [Peptide 90.0105], for which the IC50 against DRB1*0405 was determined as 279 nM; against DRB1*1501, 2230 nM; against DRB1*0802, 8180 nM; on DRB4*0101, 21 nM; against DRB1*1201, 9280 nM; at DRB1*1101, 2260 nM. The IC50 is 410 nM against DRB1*0301; > 20000 nM at DRB1*0901; > 20000 nM at DRB5*0101; 253 nM against DR1 (DRB1*0101); > 20000 nM against DRB1*1302; 34 nM at DR4w4 (DRB1*0401).

As to `CC[C@H](C)[C@H](NC(=O)[C@H](Cc1c[nH]c2ccccc12)NC(=O)[C@H](CCC(=O)O)NC(=O)[C@@H]1CCCN1)C(=O)N[C@@H](CCC(=O)O)C(=O)N[C@@H](CCCNC(=N)N)C(=O)N[C@@H](CCC(N)=O)C(=O)N[C@H](C(=O)N[C@H](C(=O)N[C@@H](CC(C)C)C(=O)N[C@@H](CCC(N)=O)C(=O)N[C@@H](Cc1c[nH]cn1)C(=O)N[C@@H](CO)C(=O)N[C@@H](Cc1ccccc1)C(=O)N[C@@H](CC(N)=O)C(=O)O)C(C)C)[C@@H](C)O` [Peptide 89.0049], the IC50 on DRB1*0405 was 440 nM; on DRB1*0802 it was 707 nM; against DRB4*0101, 2 nM; against DRB1*1201 it was 7980 nM; on DRB1*1101 it was 401 nM; at DRB1*0301 it was 210 nM. Further, the IC50 was 4520 nM at DRB1*0901; 2870 nM against DR7 (DRB1*0701); > 20000 nM on DRB5*0101; 5240 nM against DR1 (DRB1*0101); 938 nM against DRB1*1302; 18 nM on DR4w4 (DRB1*0401).

Regarding DNELTDDSDIAYYYA [Peptide 90.0085], the IC50 at DRB1*0405 is > 20000 nM; against DRB1*0802, > 20000 nM; against DRB4*0101, > 20000 nM; against DRB1*1201 it was > 20000 nM; at DRB1*1101 it was > 20000 nM; on DRB1*0301, 98 nM. For the same molecule, the IC50 on DRB1*0901, against DR7 (DRB1*0701), on DRB5*0101, on DR1 (DRB1*0101), at DRB1*1302 and against DR4w4 (DRB1*0401) was > 20000 nM each time.

KNRLTVAKLMSNLLS [Peptide 89.0064]: the IC50 on DRB1*0405 came out at 12 nM; against DRB1*0802, 580 nM; against DRB4*0101, 25 nM; against DRB1*1201 it was 89 nM; on DRB1*1101, 1580 nM; against DRB1*0301, 9720 nM. Also, the IC50 on DRB1*0901 turned out to be 2680 nM; against DR7 (DRB1*0701), 2.8 nM; against DR1 (DRB1*0101), 5.6 nM; against DRB1*1302, 14 nM; against DR4w4 (DRB1*0401), 21 nM.

For `CC(C)C[C@H](NC(=O)[C@H](CCC(N)=O)NC(=O)[C@H](CCCCN)NC(=O)[C@@H](NC(=O)[C@H](CC(C)C)NC(=O)[C@H](CCC(N)=O)NC(=O)[C@@H](NC(=O)[C@H](C)NC(=O)[C@H](CO)NC(=O)[C@@H](NC(=O)[C@@H](NC(=O)[C@H](CC(=O)O)NC(=O)[C@@H](N)CC(=O)O)[C@@H](C)O)C(C)C)[C@@H](C)O)C(C)C)C(=O)N[C@@H](CCC(N)=O)C(=O)N[C@@H](Cc1c[nH]cn1)C(=O)O` [Peptide 89.0162], the IC50 at DRB1*0405 was determined as 674 nM; at DRB1*1501, 601 nM; against DRB4*0101, 128 nM; at DRB1*1201, 275 nM; at DRB1*1101, 943 nM; at DRB1*0301 it was 241 nM. The IC50 worked out at 1970 nM against DRB1*0901, 578 nM at DRB5*0101, 73 nM against DRB1*1302 and 100 nM on DR4w4 (DRB1*0401).
